Measurements taken from publication PMC12040169 (PLOS Biology, 2025).

Assay: in vitro
Settings: human, hela cells, % viability

SMILES	viability at 28.5 h, 10 µM [%]
O=C(O)CC(CNC(=O)Cc1c[nH]c2ccccc12)c1ccc(Cl)cc1 (centres unmarked) [CBK286598]	91.7
CC(=O)c1sc(NC(=O)c2ccc(N3C(=O)CCC3=O)cc2)nc1C [CBK287334]	86.5
OC1(c2cccnc2)CCCC2CN(Cc3ccc(F)c(F)c3)CC21 (centres unmarked) [CBK284511]	101
O=C(Nn1cnnc1)c1ccc(C(=O)Nn2cnnc2)cc1 [CBK261111]	101
CCCC(=O)N1CCC(c2nc3ccc(F)cc3cc2N)CC1 [CBK284655]	92.1
CCC(=O)N1CCCC1c1nc(C)c2c(n1)N(Cc1ccccc1OC)CCC2 (centres unmarked) [CBK285642]	91.9
O=C1S/C(=C\c2ccc(F)c(Br)c2)C(=O)N1c1cccc(Cl)c1 [CBK095450]	87.7
CC(Nc1nc(-c2ccc([N+](=O)[O-])cc2)nc2ccccc12)c1ccccc1 (centres unmarked) [CBK264767]	88.3
Cc1ccc(-c2oncc2C(=O)N2CCC(n3c(=O)[nH]c4ccccc43)CC2)cc1 [CBK149180]	106
Cc1cc2cn([C@H]3C[C@@H](O)[C@@H](CO)O3)c(=O)nc2o1 [CBK201287]	96
O=C(Nc1ccc(Cl)cc1)Nc1ccc(OCC(O)CN2CCCCC2)cc1 (centres unmarked) [CBK086101]	99.4
COc1ccc(C(NC(=O)N2CCN(C(=O)OCc3ccccc3)CC2)c2ccccc2C)cn1 (centres unmarked) [CBK081469]	91.2
Cc1nc(NS(=O)(=O)c2cc(Cl)sc2Cl)sc1C(=O)N1CCN(C)CC1 [CBK045818]	106
CNC(=O)C1(Cc2ccccc2-c2cccs2)CCN(C(=O)Cc2cccc(C)c2)CC1 [CBK285686]	105
O=C(C1CC1)N1CCc2cc(-c3cn4ccccc4n3)ccc21 [CBK285193]	99.2
COc1cc(-c2cncc(N(C)CCN(C)C)n2)cc(OC)c1OC [CBK065312]	90.5
Cc1nc(CN2CCC3(CC2)CN(C(=O)C(C)C)c2ccccc23)cs1 [CBK131476]	108
NC1=NNC2=C(c3ccc(Cl)cc3Cl)NNN12 [CBK093660]	86.4
COc1ccnc(N2CCC(Oc3cccnc3N(C)C)C2)n1 (centres unmarked) [CBK304699]	92.4
c1ccc(CN2CCC3(CC2)CNCc2ccccc2O3)cc1 [CBK282605]	88.4
Cc1ccccc1-c1ccccc1CC1(C(N)=O)CCN(C(=O)Cc2ccccc2)CC1 [CBK285724]	106
Cc1ccc(S(=O)(=O)Nc2ccccc2-c2nc3ccccc3c(=O)o2)cc1 [CBK087613]	94.5

SMILES	viability at 28.5 h, 10 µM [%]
O=C1c2ccccc2-c2onc3c(NCc4ccccc4)cc(Nc4ccccc4)c1c23 [CBK261979]	84
COc1ccc2nc(NC(=O)c3ccc4ncsc4c3)sc2c1 [CBK287364]	94.8
O=C1Cc2ccccc2C2(CCN(C(=O)NCc3cccc(F)c3)CC2)N1 [CBK047288]	81
O=C(NNc1ccc([N+](=O)[O-])cc1)c1cccs1 [CBK261709]	92.1
Cc1cccc(Cn2nc(C)c(NC(=O)c3ccncc3)c2C)c1 [CBK270126]	97.2
O=C(CC1C(=O)N(Cc2ccccc2)C(=S)N1Cc1ccccc1)Nc1ccccc1 (centres unmarked) [CBK263871]	97.3
CC(=O)CCc1cc(CCC(N)=O)on1 [CBK023350]	90.3
COc1ccccc1-c1c(O)n[nH]c1CCC1CCCC1 [CBK075128]	97.5
Cc1ccc(C(C)C)c(OCC(=O)Nc2cc(-c3nc4ccccc4[nH]3)ccc2C)c1 [CBK268724]	80.7
CCc1ccc(-c2noc(CSc3n[nH]c(=O)n3CCCOC)n2)cc1 [CBK295656]	95.1
Cc1ccc(CN(C2CCN(C)CC2)S(=O)(=O)c2ccc(F)cc2F)cc1 [CBK160448T]	97.5
O=C1CN(C(=O)CCn2c(C(F)(F)F)cc3cccnc32)CCN1 [CBK284888]	92.8
Nc1ccc(-c2cc(F)cc(F)c2)c2ccccc12 [CBK084314]	93.2
COc1ccccc1-c1nnc(SCc2cccc(C(=O)O)c2)[nH]1 [CBK269952]	85.3
O=C(OCc1ccc(Br)cc1)c1ccccc1S(=O)(=O)c1ccccc1[N+](=O)[O-] [CBK265718]	92.2
COc1cc(CNC(=O)c2ccc(-c3ccc(NC(C)=O)cc3)nc2)cc(OC)c1OC [CBK158851]	100
COc1cccn(CC(=O)N(C)CCc2scnc2C)c1=O [CBK306726]	94.2
O=C(Cn1cncn1)c1ccc2c(c1)CCO2 [CBK020087]	93.5
COc1ccc(-c2cc(C(=O)N3CCN(C(C)=O)CC3)cnc2-c2ccccc2)cn1 [CBK036637]	101
CN(C)CCN1C(=O)C(O)=C(C(=O)c2cccs2)C1c1ccc([N+](=O)[O-])cc1 (centres unmarked) [CBK264584]	92.6
Clc1ccc(-c2nccnc2OCc2ccccn2)cc1Cl [CBK107108]	94.7
COc1ccc(C(C)C)cc1-c1cnc2nc(N)ccc2c1 [CBK081216]	97.7
